Earlier results on 1 compound are cited in patent publication US20240189475A1 (PUKYONG NATIONAL UNIVERSITY INDUSTRY-UNIVERSITY COOPERATION …, priority 2022, published 2024).

SMILES strings stand for the structures.

For this series the following is noted: background statement.

With `CC(=O)c1c(O)c(C)c(O)c2c1OC1=CC(=O)C(C(C)=O)C(=O)C12C` (stereo not shown) [UA, usnic acid], the solubility in water result is reported as “low solubility in water”.
